Experimental data published in ChEMBL document CHEMBL1201862, “PubChem BioAssay data set” (2004).
One block for each molecule: values may come before it. Calls of active or inactive are those of the source.

Experiments:
[1] = target: T1, Alkaline phosphatase, tissue-nonspecific isozyme (Homo sapiens, UniProt P05186); test: human TNAP enzyme inhibitors, SAR follow-up, biochemical, luminescent, dose response (AID 1056)
T1 sequence (P05186 whole entry): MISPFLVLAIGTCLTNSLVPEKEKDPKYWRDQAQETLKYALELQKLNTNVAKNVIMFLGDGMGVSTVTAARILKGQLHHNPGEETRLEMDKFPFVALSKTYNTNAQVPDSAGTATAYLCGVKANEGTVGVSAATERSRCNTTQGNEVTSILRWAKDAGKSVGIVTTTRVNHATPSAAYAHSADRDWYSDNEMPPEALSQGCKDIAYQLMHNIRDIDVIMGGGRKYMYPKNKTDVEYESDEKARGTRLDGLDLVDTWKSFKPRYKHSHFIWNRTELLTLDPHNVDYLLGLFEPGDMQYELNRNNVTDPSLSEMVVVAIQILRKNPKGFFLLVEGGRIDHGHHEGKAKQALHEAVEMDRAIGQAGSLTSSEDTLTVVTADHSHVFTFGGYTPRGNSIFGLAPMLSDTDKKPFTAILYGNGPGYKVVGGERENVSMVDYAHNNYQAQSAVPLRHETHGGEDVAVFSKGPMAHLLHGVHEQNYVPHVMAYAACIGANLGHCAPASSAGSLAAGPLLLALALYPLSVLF

[2] = target: T2, RNA-editing ligase 1, mitochondrial (Trypanosoma brucei brucei, UniProt P86926); test: TbREL1 ligase inhibitors, dose response, biochemical, fluorescence, Trypanosoma brucei (AID 1117295); type: functional
T2 sequence (P86926 whole entry): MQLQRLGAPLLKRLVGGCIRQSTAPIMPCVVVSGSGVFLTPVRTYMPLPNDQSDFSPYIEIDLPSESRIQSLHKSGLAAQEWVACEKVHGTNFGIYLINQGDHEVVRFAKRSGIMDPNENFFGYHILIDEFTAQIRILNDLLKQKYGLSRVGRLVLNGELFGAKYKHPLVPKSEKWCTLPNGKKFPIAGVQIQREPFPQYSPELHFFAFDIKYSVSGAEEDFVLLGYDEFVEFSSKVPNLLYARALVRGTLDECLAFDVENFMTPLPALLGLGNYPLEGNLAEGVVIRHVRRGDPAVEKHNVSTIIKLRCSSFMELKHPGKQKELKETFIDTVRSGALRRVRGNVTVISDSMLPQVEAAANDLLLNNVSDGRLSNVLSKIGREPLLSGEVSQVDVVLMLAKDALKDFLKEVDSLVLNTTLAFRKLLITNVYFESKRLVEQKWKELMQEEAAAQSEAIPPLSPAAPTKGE

[3] = target: Albumin (Bos taurus, UniProt P02769); test: Counterscreen for inhibitors of T-cell receptor (TCR)-CD3 interaction: Fluorescence-based biochemical high throughput dose response assay to identify inhibitors of T-cell receptor (TCR)-CD3 interaction using a TAMRA-labeled BSA probe.; type: functional
[4] = target: T3, Trace amine-associated receptor 1 (Homo sapiens, UniProt Q96RJ0); test: Counterscreen for antagonists of the human trace amine associated receptor 1 (hTAAR1): Fluorescence-based cell-based high throughput dose response assay to identify TAAR1 Agonists.; type: functional
T3 sequence (Q96RJ0 whole entry): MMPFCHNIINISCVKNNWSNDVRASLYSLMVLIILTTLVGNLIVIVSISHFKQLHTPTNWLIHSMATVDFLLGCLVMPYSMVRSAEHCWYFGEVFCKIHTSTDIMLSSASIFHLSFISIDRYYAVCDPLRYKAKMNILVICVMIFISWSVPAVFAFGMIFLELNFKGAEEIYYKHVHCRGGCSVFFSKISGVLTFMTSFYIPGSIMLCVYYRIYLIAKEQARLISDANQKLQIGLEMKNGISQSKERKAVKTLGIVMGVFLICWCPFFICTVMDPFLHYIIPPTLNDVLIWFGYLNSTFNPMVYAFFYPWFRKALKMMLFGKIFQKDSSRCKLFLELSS

[5] = Counterscreen for […] of the human trace amine associated receptor 1 (TAAR1): Fluorescence-based cell-based high throughput dose response assay to identify nonselective Ga16 agonists.; type: functional
[6] = Counterscreen for antagonists of the human trace amine associated receptor 1 (hTAAR1): Fluorescence-based cell-based high throughput dose response assay to identify nonselective Ga16 antagonists.; type: functional
[7] = target: T3, Trace amine-associated receptor 1; test: Fluorescence-based cell-based high throughput dose response assay to identify antagonists of the human trace amine associated receptor 1 (TAAR1).; type: functional
[8] = target: T4, Methionyl-tRNA synthetase, putative (Trypanosoma brucei brucei, UniProt Q38C91); type: functional, Trypanosoma brucei brucei strain 927/4 GUTat10.1
T4 sequence (Q38C91 whole entry): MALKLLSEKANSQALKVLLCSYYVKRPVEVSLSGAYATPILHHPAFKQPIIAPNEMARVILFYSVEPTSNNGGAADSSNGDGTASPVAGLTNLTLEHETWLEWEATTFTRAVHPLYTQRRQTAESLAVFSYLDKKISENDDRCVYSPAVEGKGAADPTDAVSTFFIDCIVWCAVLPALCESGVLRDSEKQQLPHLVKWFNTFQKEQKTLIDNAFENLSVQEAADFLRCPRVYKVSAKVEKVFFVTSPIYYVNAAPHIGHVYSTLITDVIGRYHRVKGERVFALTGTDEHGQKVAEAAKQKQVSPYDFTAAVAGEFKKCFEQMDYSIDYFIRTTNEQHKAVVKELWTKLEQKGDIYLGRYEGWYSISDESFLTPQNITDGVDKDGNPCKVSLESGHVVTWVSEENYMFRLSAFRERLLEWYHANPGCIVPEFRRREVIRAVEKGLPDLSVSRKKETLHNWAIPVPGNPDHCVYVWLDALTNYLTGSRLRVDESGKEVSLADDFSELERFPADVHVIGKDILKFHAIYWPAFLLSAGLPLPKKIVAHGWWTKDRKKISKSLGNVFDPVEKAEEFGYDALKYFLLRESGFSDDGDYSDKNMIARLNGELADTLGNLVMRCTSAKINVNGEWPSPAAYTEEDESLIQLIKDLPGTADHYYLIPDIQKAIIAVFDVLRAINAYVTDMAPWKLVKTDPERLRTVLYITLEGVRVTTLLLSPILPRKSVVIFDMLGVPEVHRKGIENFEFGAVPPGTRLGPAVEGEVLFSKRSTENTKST

[9] = Counterscreen for inhibitors of Trypanosoma brucei methionyl tRNA synthetase (MetRS): Luminescence-based cell-based high throughput dose response assay to identify compounds that are cytotoxic to Jurkat human T lymphocyte cells.; type: functional
[10] = target: T4, Methionyl-tRNA synthetase, putative; type: functional, Trypanosoma brucei brucei strain 927/4 GUTat10.1; remark: listed apart in the source
[11] = Late stage counterscreen for inhibitors of Trypanosoma brucei methionyl tRNA synthetase (MetRS): Luminescence-based cell-based high throughput dose response assay to identify compounds that are cytotoxic to Jurkat human T lymphocyte cells.; type: functional
[12] = cells
[13] = EDANS-DABCYL fluorescence interference, concentration series, dose response, artefact control for kallikrein-7 zymogen activator project, biochemical, fluorescence intensity, triplicate (AID 720493)
[14] = target: Kallikrein-7 (Homo sapiens, UniProt P49862); test: Fluorescence Intensity-based biochemical primary high throughput dose response assay to identify activators of kallikrein-7 (K7) zymogen.
[15] = target: Endoplasmic reticulum aminopeptidase 1 (Homo sapiens, UniProt Q9NZ08); test: ERAP1 aminopeptidase inhibitors, dose response, biochemical, cherry-pick, set 2, plate reader (AID 743314)
[16] = A549 cell cytotoxicity, dose response, cytotoxicity control, plate reader, cherry-pick, antagonist series (AID 743412); type: functional, cell-based
[17] = HepG2 cell cytotoxicity, dose response, cytotoxicity control, plate reader, cherry-pick, antagonist series (AID 743416); type: functional, cell-based
[18] = MC4R antagonists, dose response, counter-screen for LGR2 antagonist project, cell-based, plate reader, cherry pick (AID 743444); type: functional;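 note: transfected HEK 293 cells stimulated with alpha-MSH peptide; potency of inhibitors of the alpha-MSH evoked signal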
[19] = LGR2 antagonists, dose response, cell-based, HEK293, CRE-luciferase reporter, cherry pick, set 2 (AID 743343); type: functional;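 note: transfected cells were stimulated with diluted bursicon conditioned medium after compound addition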

Sequence of Albumin (P02769 whole entry): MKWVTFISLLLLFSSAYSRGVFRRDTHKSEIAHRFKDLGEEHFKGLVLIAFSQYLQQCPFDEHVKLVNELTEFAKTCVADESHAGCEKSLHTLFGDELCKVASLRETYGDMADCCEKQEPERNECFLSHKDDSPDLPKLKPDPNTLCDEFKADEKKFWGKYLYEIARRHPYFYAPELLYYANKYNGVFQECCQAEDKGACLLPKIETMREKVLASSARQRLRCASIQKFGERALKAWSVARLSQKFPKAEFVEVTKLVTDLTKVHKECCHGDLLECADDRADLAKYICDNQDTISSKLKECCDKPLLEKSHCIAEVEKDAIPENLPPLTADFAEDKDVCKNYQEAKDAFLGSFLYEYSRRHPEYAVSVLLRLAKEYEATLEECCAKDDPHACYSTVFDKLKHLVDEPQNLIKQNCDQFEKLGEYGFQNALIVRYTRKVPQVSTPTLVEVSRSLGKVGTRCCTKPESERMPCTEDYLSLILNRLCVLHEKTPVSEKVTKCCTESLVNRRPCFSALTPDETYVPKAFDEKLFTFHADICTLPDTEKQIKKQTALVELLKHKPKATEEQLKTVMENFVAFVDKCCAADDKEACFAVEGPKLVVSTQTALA
Sequence of Endoplasmic reticulum aminopeptidase 1 (Q9NZ08 whole entry): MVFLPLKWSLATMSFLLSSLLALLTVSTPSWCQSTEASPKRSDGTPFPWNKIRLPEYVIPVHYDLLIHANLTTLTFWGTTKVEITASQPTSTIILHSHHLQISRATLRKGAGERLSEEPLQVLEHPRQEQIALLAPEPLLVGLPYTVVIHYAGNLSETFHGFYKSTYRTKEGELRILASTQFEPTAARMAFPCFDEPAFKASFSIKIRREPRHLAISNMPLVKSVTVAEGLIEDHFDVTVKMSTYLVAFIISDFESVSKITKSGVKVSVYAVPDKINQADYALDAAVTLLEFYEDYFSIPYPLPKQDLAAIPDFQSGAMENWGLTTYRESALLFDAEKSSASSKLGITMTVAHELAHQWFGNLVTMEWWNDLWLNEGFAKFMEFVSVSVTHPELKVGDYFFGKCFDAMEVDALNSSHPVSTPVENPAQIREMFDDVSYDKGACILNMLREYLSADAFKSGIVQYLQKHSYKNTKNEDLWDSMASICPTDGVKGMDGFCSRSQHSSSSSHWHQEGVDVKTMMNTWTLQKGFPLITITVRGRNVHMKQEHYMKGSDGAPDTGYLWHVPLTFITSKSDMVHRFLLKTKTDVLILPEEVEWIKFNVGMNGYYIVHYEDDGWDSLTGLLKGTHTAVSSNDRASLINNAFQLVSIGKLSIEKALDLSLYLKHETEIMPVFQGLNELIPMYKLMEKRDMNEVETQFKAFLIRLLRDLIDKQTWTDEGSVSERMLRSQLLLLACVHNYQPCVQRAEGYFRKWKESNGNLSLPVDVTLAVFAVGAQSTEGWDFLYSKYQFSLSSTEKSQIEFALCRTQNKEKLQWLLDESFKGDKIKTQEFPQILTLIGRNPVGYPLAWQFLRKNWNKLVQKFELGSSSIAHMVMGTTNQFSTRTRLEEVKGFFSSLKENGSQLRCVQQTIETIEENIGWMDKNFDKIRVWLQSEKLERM
Sequence of Kallikrein-7 (P49862 whole entry): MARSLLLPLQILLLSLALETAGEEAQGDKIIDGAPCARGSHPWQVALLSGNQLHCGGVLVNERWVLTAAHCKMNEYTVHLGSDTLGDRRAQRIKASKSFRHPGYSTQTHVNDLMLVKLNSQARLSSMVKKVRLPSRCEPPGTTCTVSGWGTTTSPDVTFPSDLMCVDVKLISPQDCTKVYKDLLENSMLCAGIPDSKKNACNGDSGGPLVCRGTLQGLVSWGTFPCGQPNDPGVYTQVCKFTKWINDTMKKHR

- IC50 [1]: 20.2 µM (active)
- IC50 [2]: > 96.6 µM (inactive)
- IC50 [3]: > 94 µM (inactive)
SMILES: Cc1nc2ccccc2n1CC(=O)c1ccc(O)c(O)c1

SMILES: COC(=O)c1oc2c(c1C)C1(CCC2)SCCS1
- EC50 [4]: > 29.9 µM (inactive)
- EC50 [5]: > 29.9 µM (inactive)
- IC50 [6]: > 29.9 µM (inactive)
- IC50 [7]: 1.09 µM (active)

SMILES: COc1cccc(NC(=O)CSc2n[nH]c3c4cc(C)ccc4nc-3n2)c1
- IC50 [8]: 101 nM (active)
- IC50 [9]: 83.3 µM (inactive)
- IC50 [10]: 48.3 nM (active)
- IC50 [11]: > 83.3 µM (inactive)

SMILES: CC12CC(c3ccccc3O1)C(C(=O)OCc1ccccc1)C(=O)N2 (centres undefined)
- AC50 [12]: 151 nM (active)

- EC50 [14]: 10.3 µM (inactive)
SMILES: CC1Nc2ccccc2C(=O)N1NS(C)(=O)=O (centres undefined)
- EC50 [13]: > 7.73 µM (active)

- AC50 [15]: 14.2 µM (active)
SMILES: CC(C)(C)c1cc(N2CCOCC2)n2ncc(-c3ccccc3)c2n1

SMILES: Cc1ccc2nc(-c3ccccc3)nn2c1
- AC50 [16]: > 52 µM (inactive)
- AC50 [17]: > 52 µM (inactive)
- AC50 [18]: 3.56 µM (active)
- AC50 [19]: 2.48 µM (active)
